Where two headings read alike, the source gives them in different places.
Experiments:
[1] = test system: BT-549; set-up: method as in https://dtp.cancer.gov/dtpstandard/dwindex/index.jsp; conditions: reference drugs, ref https://dtp.cancer.gov/dtpstandard/dwindex/index.jsp; cited from earlier work
[2] = test system: HOP-62; set-up: method as in https://dtp.cancer.gov/dtpstandard/dwindex/index.jsp; conditions: reference drugs, ref https://dtp.cancer.gov/dtpstandard/dwindex/index.jsp; cited from earlier work
[3] = test system: HT29; set-up: method as in https://dtp.cancer.gov/dtpstandard/dwindex/index.jsp; conditions: reference drugs, ref https://dtp.cancer.gov/dtpstandard/dwindex/index.jsp; cited from earlier work
[4] = test system: SR; set-up: method as in https://dtp.cancer.gov/dtpstandard/dwindex/index.jsp; conditions: reference drugs, ref https://dtp.cancer.gov/dtpstandard/dwindex/index.jsp; cited from earlier work
[5] = test system: NSC lung cancer tumour cell lines; conditions: cited from earlier work
[6] = test system: MOLT-4; set-up: method as in https://dtp.cancer.gov/dtpstandard/dwindex/index.jsp; conditions: reference drugs, ref https://dtp.cancer.gov/dtpstandard/dwindex/index.jsp; cited from earlier work
[7] = test system: colon cancer tumour cell lines; conditions: cited from earlier work
[8] = test system: KM12; set-up: method as in https://dtp.cancer.gov/dtpstandard/dwindex/index.jsp; conditions: reference drugs, ref https://dtp.cancer.gov/dtpstandard/dwindex/index.jsp; cited from earlier work
[9] = test system: renal cancer tumour cell lines; conditions: cited from earlier work
[10] = test system: HCT-15; set-up: method as in https://dtp.cancer.gov/dtpstandard/dwindex/index.jsp; conditions: reference drugs, ref https://dtp.cancer.gov/dtpstandard/dwindex/index.jsp; cited from earlier work
[11] = test system: UACC-257; set-up: method as in https://dtp.cancer.gov/dtpstandard/dwindex/index.jsp; conditions: reference drugs, ref https://dtp.cancer.gov/dtpstandard/dwindex/index.jsp; cited from earlier work
[12] = test system: NCI-H322M; set-up: method as in https://dtp.cancer.gov/dtpstandard/dwindex/index.jsp; conditions: reference drugs, ref https://dtp.cancer.gov/dtpstandard/dwindex/index.jsp; cited from earlier work
[13] = test system: SF-539; set-up: method as in https://dtp.cancer.gov/dtpstandard/dwindex/index.jsp; conditions: reference drugs, ref https://dtp.cancer.gov/dtpstandard/dwindex/index.jsp; cited from earlier work
[14] = test system: SK-MEL-2; set-up: method as in https://dtp.cancer.gov/dtpstandard/dwindex/index.jsp; conditions: reference drugs, ref https://dtp.cancer.gov/dtpstandard/dwindex/index.jsp; cited from earlier work
[15] = test system: SK-OV-3; set-up: method as in https://dtp.cancer.gov/dtpstandard/dwindex/index.jsp; conditions: reference drugs, ref https://dtp.cancer.gov/dtpstandard/dwindex/index.jsp; cited from earlier work
[16] = test system: DU-145; set-up: method as in https://dtp.cancer.gov/dtpstandard/dwindex/index.jsp; conditions: reference drugs, ref https://dtp.cancer.gov/dtpstandard/dwindex/index.jsp; cited from earlier work
[17] = test system: U251; set-up: method as in https://dtp.cancer.gov/dtpstandard/dwindex/index.jsp; conditions: reference drugs, ref https://dtp.cancer.gov/dtpstandard/dwindex/index.jsp; cited from earlier work
[18] = test system: CNS cancer tumour cell lines; conditions: cited from earlier work
[19] = test system: M14; set-up: method as in https://dtp.cancer.gov/dtpstandard/dwindex/index.jsp; conditions: reference drugs, ref https://dtp.cancer.gov/dtpstandard/dwindex/index.jsp; cited from earlier work
[20] = test system: SN12C; set-up: method as in https://dtp.cancer.gov/dtpstandard/dwindex/index.jsp; conditions: reference drugs, ref https://dtp.cancer.gov/dtpstandard/dwindex/index.jsp; cited from earlier work
[21] = test system: MDA-MB-435; set-up: method as in https://dtp.cancer.gov/dtpstandard/dwindex/index.jsp; conditions: reference drugs, ref https://dtp.cancer.gov/dtpstandard/dwindex/index.jsp; cited from earlier work
[22] = test system: MDA-MB-231/ATCC; test: NCI antitumor screen (SRB); assay type: cell-based; conditions: Homo sapiens; for inhibition at 10 µM: one dose 10 µM, read-out: Growth inhibition percentage (GI%)
[23] = test system: UACC-257; test: NCI antitumor screen (SRB); assay type: cell-based, human; conditions: for inhibition at 10 µM: read-out: Growth inhibition percentage (GI%)
[24] = test system: NCI-H226; test: NCI antitumor screen (SRB); assay type: cell-based; conditions: Homo sapiens; for inhibition at 10 µM: one dose 10 µM, read-out: Growth inhibition percentage (GI%)
[25] = test system: EKVX; test: NCI antitumor screen (SRB); assay type: cell-based; conditions: Homo sapiens; for inhibition at 10 µM: one dose 10 µM, read-out: Growth inhibition percentage (GI%)
[26] = test system: COLO 205; test: NCI antitumor screen (SRB); assay type: cell-based; conditions: Homo sapiens; for inhibition at 10 µM: one dose 10 µM, read-out: Growth inhibition percentage (GI%)
[27] = test system: PRMI-8226; test: NCI antitumor screen (SRB); assay type: cell-based; conditions: Homo sapiens; for inhibition at 10 µM: one dose 10 µM, read-out: Growth inhibition percentage (GI%)
[28] = test system: SK-MEL-5; test: NCI antitumor screen (SRB); assay type: cell-based, human; conditions: for inhibition at 10 µM: read-out: Growth inhibition percentage (GI%)
[29] = test system: A549/ATCC; test: NCI antitumor screen (SRB); assay type: cell-based; conditions: Homo sapiens; for inhibition at 10 µM: one dose 10 µM, read-out: Growth inhibition percentage (GI%)
[30] = test system: LOX IMVI; test: NCI antitumor screen (SRB); assay type: cell-based; conditions: Homo sapiens; for inhibition at 10 µM: one dose 10 µM, read-out: Growth inhibition percentage (GI%)
[31] = test system: NCI-H23; test: NCI antitumor screen (SRB); assay type: cell-based; conditions: Homo sapiens; for inhibition at 10 µM: one dose 10 µM, read-out: Growth inhibition percentage (GI%)
[32] = test system: ACHN; test: NCI antitumor screen (SRB); assay type: cell-based; conditions: Homo sapiens; for inhibition at 10 µM: one dose 10 µM, read-out: Growth inhibition percentage (GI%)
[33] = test system: SK-MEL-2; test: NCI antitumor screen (SRB); assay type: cell-based; conditions: Homo sapiens
[34] = test system: A498; test: NCI antitumor screen (SRB); assay type: cell-based; conditions: Homo sapiens; for inhibition at 10 µM: one dose 10 µM, read-out: Growth inhibition percentage (GI%)
[35] = test system: NCI-H460; test: NCI antitumor screen (SRB); assay type: cell-based; conditions: Homo sapiens; for inhibition at 10 µM: one dose 10 µM, read-out: Growth inhibition percentage (GI%)
[36] = test system: M14; test: NCI antitumor screen (SRB); assay type: cell-based; conditions: Homo sapiens; for inhibition at 10 µM: one dose 10 µM, read-out: Growth inhibition percentage (GI%)
[37] = test system: SR; test: NCI antitumor screen (SRB); assay type: cell-based; conditions: Homo sapiens; for inhibition at 10 µM: one dose 10 µM, read-out: Growth inhibition percentage (GI%)
[38] = test system: MOLT-4; test: NCI antitumor screen (SRB); assay type: cell-based; conditions: Homo sapiens; for inhibition at 10 µM: one dose 10 µM, read-out: Growth inhibition percentage (GI%)
[39] = test system: NCI-H522; test: NCI antitumor screen (SRB); assay type: cell-based; conditions: Homo sapiens
[40] = read-out: GI50 (subpanel average), reference drugs, ref https://dtp.cancer.gov/dtpstandard/dwindex/index.jsp
[41] = reference drugs, ref https://dtp.cancer.gov/dtpstandard/dwindex/index.jsp
[42] = Homo sapiens, UACC-257, one dose 10 µM
[43] = Homo sapiens, SK-MEL-5, one dose 10 µM
[44] = SK-MEL-2, read-out: Growth inhibition percentage (GI%)
[45] = NCI-H522, read-out: Growth inhibition percentage (GI%)
[46] = five concentrations 0.01-100 µM

COc1cc2ncnc(Nc3ccc(F)c(Cl)c3)c2cc1OCCCN1CCOCC1 [Gefitinib, gefitinib]
GI50 [1]: 3160 nM | GI50 [2]: 3160 nM | GI50 [3]: 3980 nM | GI50 [4]: 3160 nM | GI50 [5, 40]: 2050 nM | TGI (subpanel average) [5, 41]: 13860 nM | GI50 [6]: 2000 nM | GI50 [7, 40]: 5230 nM | TGI (subpanel average) [7, 41]: 18470 nM | GI50 [8]: 10000 nM | GI50 [9, 40]: 1410 nM | TGI (subpanel average) [9, 41]: 12500 nM | GI50 [10]: 3980 nM | GI50 [11]: 2510 nM | GI50 [12]: 63 nM | GI50 [13]: 10000 nM | GI50 [14]: 10000 nM | GI50 [15]: 1000 nM | GI50 [16]: 1580 nM | GI50 [17]: 3160 nM | GI50 [18, 40]: 5640 nM | TGI (subpanel average) [18, 41]: 19620 nM | GI50 [19]: 2000 nM | GI50 [20]: 1260 nM | GI50 [21]: 3160 nM

CS(=O)(=O)c1ccc(C(=O)NN=Cc2cccc3ccccc23)cc1 [Compound 6, 4-(Methylsulfonyl)-N'-(naphthalen-1-ylmethylene)benzohydrazide]
inhibition at 10 µM [22]: < 10% | inhibition at 10 µM [23, 42]: 58.9% | inhibition at 10 µM [24]: 16.3% | inhibition at 10 µM [25]: 12.6% | inhibition at 10 µM [26]: 14.3% | inhibition at 10 µM [27]: 12.3% | inhibition at 10 µM [28, 43]: 32.8% | inhibition at 10 µM [29]: 58.7% | inhibition at 10 µM [30]: 27.6% | inhibition at 10 µM [31]: 10.4% | inhibition at 10 µM [32]: < 10% | inhibition at 10 µM [33, 44]: 52.3% | inhibition at 10 µM [34]: 30.9% | inhibition at 10 µM [35]: 33.2% | inhibition at 10 µM [36]: 33.2% | inhibition at 10 µM [37]: 67.5% | inhibition at 10 µM [38]: 53.2% | inhibition at 10 µM [39, 45]: 95.5%

CS(=O)(=O)c1ccc(C(=O)N/N=C/c2ccccc2O)cc1 [Compound 16]
inhibition at 10 µM [22]: 52.6% | inhibition at 10 µM [23, 42]: 77.4% | inhibition at 10 µM [24]: 44.8% | inhibition at 10 µM [25]: 74.2% | inhibition at 10 µM [26]: 68.8% | inhibition at 10 µM [27]: 51.3% | inhibition at 10 µM [28, 43]: 67.8% | inhibition at 10 µM [29]: 61.2% | inhibition at 10 µM [30]: 78.6% | inhibition at 10 µM [31]: 45.2% | inhibition at 10 µM [32]: 71.7% | inhibition at 10 µM [33, 44]: 60% | inhibition at 10 µM [34]: 24.8% | inhibition at 10 µM [35]: 85.9% | inhibition at 10 µM [36]: 67.5% | inhibition at 10 µM [37]: 79.6% | inhibition at 10 µM [38]: 90.8% | inhibition at 10 µM [39, 45]: 84.9%

CCN(CC)c1ccc(/C=N/NC(=O)c2ccc(S(C)(=O)=O)cc2)c(O)c1 [Compound 20]
GI50 [22, 46]: 308 nM | inhibition at 10 µM [22]: 56.8% | inhibition at 10 µM ([23]; Homo sapiens, UACC-257, UACC-257, one dose 10 µM): 100% | GI50 ([23]; Homo sapiens, UACC-257, five concentrations 0.01-100 µM): 340 nM | Growth inhibition percentage (GI%) ([23]; UACC-257, one dose 10 µM): >100% | GI50 [24, 46]: 73 nM | inhibition at 10 µM [24]: 77.4% | GI50 [25, 46]: 162 nM | inhibition at 10 µM [25]: 84.5% | GI50 [26, 46]: 269 nM | inhibition at 10 µM [26]: 91.4% | GI50 [27, 46]: 297 nM | inhibition at 10 µM [27]: 79% | inhibition at 10 µM ([28]; Homo sapiens, SK-MEL-5, SK-MEL-5, one dose 10 µM): 100% | GI50 ([28]; Homo sapiens, SK-MEL-5, five concentrations 0.01-100 µM): 223 nM | Growth inhibition percentage (GI%) ([28]; SK-MEL-5, one dose 10 µM): >100% | GI50 [29, 46]: 402 nM | inhibition at 10 µM [29]: 87.5% | GI50 [30, 46]: 99.7 nM | inhibition at 10 µM [30]: 90.3% | GI50 [31, 46]: 446 nM | inhibition at 10 µM [31]: 67.2% | GI50 [32, 46]: 117 nM | inhibition at 10 µM [32]: 82.9% | GI50 ([33]; SK-MEL-2, five concentrations 0.01-100 µM): 307 nM | inhibition at 10 µM ([33]; SK-MEL-2, one dose 10 µM, read-out: Growth inhibition percentage (GI%)): 80.5% | GI50 [34, 46]: 9810 nM | inhibition at 10 µM [34]: 54.7% | GI50 [35, 46]: 113 nM | inhibition at 10 µM [35]: 96.7% | GI50 [36, 46]: 171 nM | inhibition at 10 µM [36]: 96.6% | GI50 [37, 46]: 63 nM | inhibition at 10 µM [37]: 91% | GI50 [38, 46]: 164 nM | inhibition at 10 µM [38]: 97.3% | GI50 ([39]; NCI-H522, five concentrations 0.01-100 µM): 395 nM | inhibition at 10 µM ([39]; NCI-H522, one dose 10 µM, read-out: Growth inhibition percentage (GI%)): 90.1%

From publication PMC8288134, “Synthesis, potential antitumor activity, cell cycle analysis, and multitarget mechanisms of novel hydrazones incorporating a 4-methylsulfonylbenzene scaffold: a molecular docking study” (Journal of Enzyme Inhibition and Medicinal Chemistry, 2021)
